The text below walks through data of PMC5753150 (Beilstein Journal of Organic Chemistry, 2017).

Data set [1] concerns pepsin (EC 3.4.23.1). Briefly: pepsin in 10 mM acetate buffer, pH 4.0. The note with it: porcine stomach mucosa, 30 °C, up to 24 h.
Data set [2] concerns proteinase K (EC 3.4.21.64). Briefly: proteinase K in 50 mM Tris/HCl buffer, containing 10 mM CaCl2 pH 7.5. The note with it: tritirachium album, 37 °C, up to 24 h.
The test system of data set [3] is α-chymotrypsin (EC 3.4.21.1). The experiment in a line: α-chymotrypsin in 10 mM phosphate buffer, pH 7.4. The note with it: bovine pancreas, 30 °C, up to 24 h.
The test system of data set [4] is elastase (EC 3.4.21.36). The experiment in a line: elastase in 100 mM Tris/HCl buffer, pH 8.4. The note with it: porcine pancreas, 37 °C, up to 24 h.
In data set [5] the target is T1, α-chymotrypsin (EC 3.4.21.1) (Bos taurus, UniProt P00766).
T1 construct: purchased Sigma Aldrich; host or cells: bovine pancreas
Briefly: Protease digestion assay with α-chymotrypsin (FL-RP-HPLC). Type of data set: in vitro ADME, bovine. The note with it: α-chymotrypsin (bovine pancreas), 10 mM phosphate buffer pH 7.4 with DMSO, 30 °C, 24 h, FL-RP-HPLC peak integration (Abz, λex 320/λem 420 nm), average of three independent measurements. Here is the method: The FA peptide was used as a reference. […] All experiments were performed in triplicate.
The used linear gradients are
chromatograms where an insufficient baseline separation was observed,
(proteinase K)]. The obtained data were analyzed with EZChrom Elite software
Method Time [min] Water + 0.1% (v/v) TFA [%] ACN + 0.1% (v/v) TFA [%]

Data set [6] addresses pepsin (EC 3.4.23.1) (Sus scrofa, UniProt P00791). The experiment in a line: in vitro. The settings on record: pepsin (porcine stomach mucosa), 10 mM acetate buffer pH 4.0 with DMSO, 30 °C, 24 h, FL-RP-HPLC peak integration (Abz, λex 320/λem 420 nm), average of three independent measurements. How it is done: (§1) The course of proteolytic digestion was characterized by an analytical HPLC-assay with fluorescence detection. For quantification of substrate degradation, integration of the corresponding HPLC peak was conducted. Cleavage products were identified by ESI–ToF mass spectrometry (see Supporting Information File 1, Tables S4–S7).
(§2) All peptides employed in the degradation studies were used as the TFA salts obtained after lyophilization. Stock solutions of α-chymotrypsin (from bovine pancreas, EC 3.4.21.1, ≥40.0 units/mg of protein, Sigma Aldrich, St. Louis, MO, USA), and pepsin (from porcine stomach mucosa, EC 3.4.23.1, ≥250 units/mg of protein, Sigma Aldrich, St. Louis, MO, USA) were prepared at concentrations of 1 mg/mL in phosphate buffer (10 mM, pH 7.4), or in acetate buffer (10 mM, pH 4.0), respectively. For proteinase K (from tritirachium album, EC 3.4.21.64, ≥30 units/mg of protein, Sigma Aldrich, St. Louis, MO, USA) and elastase (from porcine pancreas, EC 3.4.21.36, 6.2 units/mg of protein, Sigma Aldrich, St. Louis, MO, USA) stock solutions were prepared also at concentrations of 1 mg/mL in tris/HCl (50 mM) + CaCl2 (10 mM) buffer (pH 7.5), or in tris/HCl buffer (100 mM, pH 8.4), respectively. Peptides (0.002 mmol) were prepared as stocks in DMSO (100 µL) and incubated with the respective enzyme at 30 °C (for α-chymotrypsin and pepsin) or 37 °C (for proteinase K and elastase) with shaking at 300 rpm in a thermomixer over a period of 24 h. The reaction mixture consisted of DMSO (15 µL), corresponding buffer (25 µL), peptide solution (5 µL) and the corresponding enzyme solution (5 µL). […] Aliquots of 5 µL were taken at fixed time points (0, 15, 30, 60, 90, 120 min as well as 3 h and 24 h) and either quenched with ACN containing 0.1% (v/v) TFA (95 µL), in the case of α-chymotrypsin, proteinase K and elastase, or 2% aqueous ammonia (95 µL), in the case of pepsin. All samples were subjected to analytical HPLC on a LaChrom-ELITE-HPLC-System equipped with a fluorescence detector (VWR International Hitachi, Darmstadt, Germany). A monolithic reversed-phase C8 Chromolith® Performance HPLC column (100 × 4.6 mm, Merck KGaA, Darmstadt, Germany) was used to resolve and quantify the products of digestion. The used system and gradients are described in detail in Supporting Information File 1. Detection based on the Abz label was carried out using a fluorescence detector with λex = 320 nm and λem = 420 nm. In all cases, the peaks corresponding to the starting materials (full-length peptides) or the N-terminal fragments (products) were integrated and used to determine the velocity of the reaction (see Supporting Information File 1). […] Each fragment cleaved from the full-length peptide was identified by ESI–ToF mass analysis on an Agilent 6220 ESI–ToF–MS spectrometer (Agilent Technologies, Santa Clara, CA, USA, see Supporting Information File 1). All experiments were performed in triplicate.
(§3) 2130) with solvent degasser, an autosampler (L-2200) with a 100 µL sample loop, a diode array flow detector (L-2455), a fluorescence detector (L-2485) and a high pressure gradient mixer. As eluents water and ACN, both containing 0.1% (v/v) TFA were used, and a flow rate of 3 mL/min was applied. The used linear gradients are […]
(§4) For the non-fluorinated peptides method A was used to follow the digestion process, and for the fluorinated peptides method B was applied. For […]
(§5) The obtained data were analyzed with EZChrom Elite software
(§6) (version 3.3.2, Agilent Technologies, Santa Clara, CA, USA).

The target of data set [7] is elastase (EC 3.4.21.36) (Sus scrofa, UniProt P00772). The note with it: elastase, 100 mM Tris/HCl buffer pH 8.4, 37 °C; for Proteolytic stability compared to control peptide FA after 24 h: FL-RP-HPLC. How it is done:
as §1, §2, §3, §4, §5, §6

“Also recorded” adds a separate entry of the source. *1 amine or outer side, *2 acyl side, *3 side chain or, on linkers, in order; H or OH if unused. Where a SMILES comes first, the peptide text is derived from it. [ ]: non-standard residue; d: D form. X1 = C[C@@H](CC(F)(F)F)[C@H](N[*:1])C(=O)[*:2]; 2Abz = Nc1ccccc1C(=O)O

Sequence of elastase (EC 3.4.21.36) (Sus scrofa, UniProt P00772) (P00772 27-266): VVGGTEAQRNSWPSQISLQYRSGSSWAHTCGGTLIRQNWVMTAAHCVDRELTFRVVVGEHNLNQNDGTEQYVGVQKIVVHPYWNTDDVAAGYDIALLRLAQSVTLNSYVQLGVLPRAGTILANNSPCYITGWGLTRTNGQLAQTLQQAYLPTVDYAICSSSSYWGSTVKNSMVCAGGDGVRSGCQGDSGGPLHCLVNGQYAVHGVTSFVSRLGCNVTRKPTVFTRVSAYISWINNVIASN
Sequence of pepsin (EC 3.4.23.1) (Sus scrofa, UniProt P00791) (P00791 60-385): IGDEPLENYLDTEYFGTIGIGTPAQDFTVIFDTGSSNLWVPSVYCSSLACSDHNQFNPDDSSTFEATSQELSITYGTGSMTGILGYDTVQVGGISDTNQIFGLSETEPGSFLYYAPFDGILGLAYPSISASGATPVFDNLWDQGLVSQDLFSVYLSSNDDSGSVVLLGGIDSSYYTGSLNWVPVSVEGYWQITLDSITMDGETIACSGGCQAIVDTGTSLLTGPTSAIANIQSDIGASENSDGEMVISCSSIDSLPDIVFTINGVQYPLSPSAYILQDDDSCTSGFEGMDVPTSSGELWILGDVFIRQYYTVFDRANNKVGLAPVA

For Abz-KATfIleFAAAAK, the results for the not cleaved (in the data set on pepsin (EC 3.4.23.1) [1]; in data set [3]; in the data set on elastase (EC 3.4.21.36) [4]) were 100% after 24 h, “not digested at all” and “no fragments with Phe in the P1 position observed”, respectively. For the same compound, the cleaved bond result was “F-A and A-A” in data set [2]; “TfIle-F and A-A” in the data set with elastase (EC 3.4.21.36) [4].
As to Abz-KAAFHfLeuAAAK, the cleaved bond result was “F-HfLeu; also recorded: HfLeu-Ala” with pepsin (EC 3.4.23.1) [1]; “A-F” in data set [2]; “F-HfLeu, major; also recorded: HfLeu-A” in data set [3]; “K-A and A-A” in the data set with elastase (EC 3.4.21.36) [4]. Moreover, the not cleaved result with elastase (EC 3.4.21.36) [4] was “no fragments with Phe in the P1 position observed”.
Take Abz-KAAFIleAAAK: the cleaved bond result in data set [2] was “A-F and A-A”; in data set [3] it was “F-Ile, major”; in the data set with elastase (EC 3.4.21.36) [4], “A-F and A-A”. Further, the not cleaved result with elastase (EC 3.4.21.36) [4] is reported as “no fragments with Phe in the P1 position observed”.
As for Abz-KAAFAAAAK, the cleaved bond entry in the data set with pepsin (EC 3.4.23.1) [1] is given as “F-A”; in data set [2], “A-A”; in data set [3], “F-A, major”; in the data set with elastase (EC 3.4.21.36) [4], “A-A”. Moreover, the not cleaved result in the data set on elastase (EC 3.4.21.36) [4] is reported as “no fragments with Phe in the P1 position observed”.
Consider Abz-KAAFLeuAAAK, for which the cleaved bond result with pepsin (EC 3.4.23.1) [1] was “F-Leu; also recorded: Leu-Ala”; in data set [2] it was “A-F and A-A”; in data set [3], “F-Leu, major; also recorded: Leu-A”; in the data set with elastase (EC 3.4.21.36) [4], “K-A and A-A and A-F and A-K”. Also, in the data set with elastase (EC 3.4.21.36) [4], the not cleaved entry is “no fragments with Phe in the P1 position observed”.
Consider Abz-KALeuFAAAAK, for which the cleaved bond result in the data set with pepsin (EC 3.4.23.1) [1] is “F-A”; in data set [2], “Leu-F and A-A”; in data set [3], “F-A, major”; in the data set with elastase (EC 3.4.21.36) [4], “A-Leu and A-A and A-K”.
Regarding Abz-KAAFTfIleAAAK, the cleaved bond result was “F-TfIle” with pepsin (EC 3.4.23.1) [1]; “A-F and A-A” in data set [2]; “F-TfIle, major” in data set [3]; “A-A” in the data set on elastase (EC 3.4.21.36) [4]. In addition, the not cleaved result in the data set with elastase (EC 3.4.21.36) [4] is “no fragments with Phe in the P1 position observed”.
Regarding `CC(C)C[C@H](NC(=O)[C@H](C)NC(=O)[C@H](CCCCN)NC(=O)c1ccccc1N)C(=O)N[C@@H](Cc1ccccc1)C(=O)N[C@@H](C)C(=O)N[C@@H](C)C(=O)N[C@@H](C)C(=O)N[C@@H](C)C(=O)N[C@@H](CCCCN)C(=O)O` [P2-LeuFA] (H-[2Abz]KALFAAAAK-OH), the “Percentage of substrate remaining after incubation for 24 h” value in data set [5] is on record as “complete proteolysis”.
As for Abz-KAAFAHfLeuAAK, the cleaved bond result in the data set on pepsin (EC 3.4.23.1) [1] is “A-HfLeu”; in data set [2], “A-HfLeu; also recorded: HfLeu-A”; in data set [3] it was “F-A, major”; with elastase (EC 3.4.21.36) [4], “K-A and A-A and A-F and A-HfLeu”. Moreover, the not cleaved result in the data set on pepsin (EC 3.4.23.1) [1] is on record as “not hydrolyzed at the designed cleavage site”; with elastase (EC 3.4.21.36) [4], “no fragments with Phe in the P1 position observed”.
`C[C@H](NC(=O)[C@H](C)NC(=O)[C@H](C)NC(=O)[C@H](Cc1ccccc1)NC(=O)[C@H](C)NC(=O)[C@H](C)NC(=O)[C@H](CCCCN)NC(=O)c1ccccc1N)C(=O)N[C@@H](C)C(=O)N[C@@H](CCCCN)C(=O)O` [FA] (H-[2Abz]KAAFAAAAK-OH): at pepsin (EC 3.4.23.1) [6], the “Percentage of substrate remaining after incubation for 24 h” value was “almost completely degraded”.
For the compound `CC[C@H](C)[C@H](NC(=O)[C@H](Cc1ccccc1)NC(=O)[C@H](C)NC(=O)[C@H](C)NC(=O)[C@H](CCCCN)NC(=O)c1ccccc1N)C(=O)N[C@@H](C)C(=O)N[C@@H](C)C(=O)N[C@@H](C)C(=O)N[C@@H](CCCCN)C(=O)O` [P1’-IleFA] (H-[2Abz]KAAFIAAAK-OH), the “Proteolytic stability compared to control peptide FA after 24 h” value at elastase (EC 3.4.21.36) [7] is on record as “more stable than the control peptide FA”.
On to Abz-KAHfLeuFAAAAK, for which the cleaved bond entry was “F-A and HfLeu-F” in the data set on pepsin (EC 3.4.23.1) [1]; “HfLeu-F and A-A” in data set [2]; “HfLeu-F and A-A” in the data set on elastase (EC 3.4.21.36) [4]. Also, the not cleaved entry in data set [3] is recorded as “not digested at all”; with elastase (EC 3.4.21.36) [4], “no fragments with Phe in the P1 position observed”.
In the case of Abz-KAAFATfIleAAK, the cleaved bond entry in the data set with pepsin (EC 3.4.23.1) [1] was “F-A and A-TfIle and A-F”; in data set [2], “A-F”; in data set [3], “F-A, major”; with elastase (EC 3.4.21.36) [4] it was “A-F and TfIle-A”. Further, in the data set on elastase (EC 3.4.21.36) [4], the not cleaved result is “no fragments with Phe in the P1 position observed”.
Regarding `C[C@H](NC(=O)[C@H](C)NC(=O)[C@@H](NC(=O)[C@H](Cc1ccccc1)NC(=O)[C@H](C)NC(=O)[C@H](C)NC(=O)[C@H](CCCCN)NC(=O)c1ccccc1N)[C@@H](C)CC(F)(F)F)C(=O)N[C@@H](C)C(=O)N[C@@H](CCCCN)C(=O)O` [P1’-TfIleFA] (H-[2Abz]KAAF[X1]AAAK-OH), on elastase (EC 3.4.21.36) [7], the “Proteolytic stability compared to control peptide FA after 24 h” value is reported as “comparably stable”. For the same compound, at elastase (EC 3.4.21.36) [7] (after 24 h), the “Gain in stability upon fluorination compared to the non-fluorinated (Leu or Ile) analogue, 24 h” value is recorded as “accelerates enzymatic degradation”.
With Abz-KAIleFAAAAK, the cleaved bond result with pepsin (EC 3.4.23.1) [1] was “F-A”; in data set [2], “F-A”; in data set [3], “F-A, major”; in the data set with elastase (EC 3.4.21.36) [4], “Ile-F and A-A and A-K”. In addition, the not cleaved entry in the data set with elastase (EC 3.4.21.36) [4] is given as “no fragments with Phe in the P1 position observed”.
For Abz-KAAFAIleAAK, the cleaved bond result was “F-A” with pepsin (EC 3.4.23.1) [1]; “A-F and A-Ile” in data set [2]; “F-A, major” in data set [3]; “A-F and Ile-A and A-A and A-K” in the data set with elastase (EC 3.4.21.36) [4]. Also, the not cleaved entry with elastase (EC 3.4.21.36) [4] was “no fragments with Phe in the P1 position observed”.
